# Laboratory results taken from patent US20040184993A1, “Pharmaceutical aerosol composition containing HFA 227 and HFA 134a” (Chiesi Farmaceutici S.p.A., priority 1998, published 2004).
# “And” between values parts separate entries of the source, which are not always exact repeats. Identical values can stand only once. Like-named read-outs stand apart in the source and are kept apart here.
# Key:
# [1] = Aerodynamic particle size distribution of pMDI solution formulations by Andersen Cascade Impactor (MMAD, GSD, fine particle dose); assay type: physicochemical; conditions: for FPD3 < 4.7 μm*: ethanol 15%, normalized for 250 nominal dose
# Method: The aerodynamic particle size distribution of each formulation was characterized using a Multistage Cascade Impactor according to the procedure described in the European Pharmacopoeia 2nd edition, 1995, part V.5.9.1. pages 15-17. In this specific case an Andersen Cascade Impactor (ACI) was used. Results represented were obtained from ten cumulative actuations of a formulation. Deposition of the drug on each ACI plate was determined by high pressure liquid chromatography. The mass median aerodynamic diameter (MMAD) and geometric standard deviation (GSD) were calculated from plots of the cumulative percentage undersize of drug collected on each ACI plate (probit scale), against the upper cut off diameter for each respective ACI plate (log10 scale). The fine particle dose of each formulation was determined from the mass of drug collected on Stages 3 through to Filter (<4.7 μm) divided by the number of actuations per experiment.
# [2] = BDP as a solution in HFA 134a (formulations of EP 0553298), reported in literature; cited from earlier work
# [3] = BDP 50 μg/shot, ethanol 13%, glycerol 1.3%, HFA 134a, chamber volume 25 μl, actuator orifice 0.25 mm
# [4] = BDP 50 μg/shot, ethanol 13%, glycerol 1.3%, HFA 134a, chamber volume 25 μl, actuator orifice 0.30 mm
# [5] = BDP 50 μg/shot, ethanol 13%, glycerol 1.3%, HFA 134a, chamber volume 50 μl, actuator orifice 0.30 mm
# [6] = BDP 50 μg/shot, ethanol 13%, glycerol 1.3%, HFA 134a, chamber volume 100 μl, actuator orifice 0.30 mm
# [7] = BDP 50 μg/shot, ethanol 13%, glycerol 1.3%, HFA 227, chamber volume 25 μl, actuator orifice 0.30 mm
# [8] = BDP 50 μg/shot, ethanol 13%, glycerol 1.3%, HFA 227, chamber volume 50 μl, actuator orifice 0.30 mm
# [9] = BDP 50 μg/shot, ethanol 13%, glycerol 1.3%, HFA 227, chamber volume 100 μl, actuator orifice 0.30 mm
# [10] = BDP 250 μg/shot, ethanol 15% (w/w), glycerol 1.3% (w/w), actuator 0.30 mm, HFA 227/HFA 134a 0:100
# [11] = BDP 250 μg/shot, ethanol 15% (w/w), glycerol 1.3% (w/w), actuator 0.30 mm, HFA 227/HFA 134a 25:75
# [12] = BDP 250 μg/shot, ethanol 15% (w/w), glycerol 1.3% (w/w), actuator 0.30 mm, HFA 227/HFA 134a 50:50
# [13] = BDP 250 μg/shot, ethanol 15% (w/w), glycerol 1.3% (w/w), actuator 0.30 mm, HFA 227/HFA 134a 75:25
# [14] = BDP 250 μg/shot, ethanol 15% (w/w), glycerol 1.3% (w/w), actuator 0.30 mm, HFA 227/HFA 134a 100:0
compound,measurement,setting,value
"CCC(=O)OCC(=O)[C@@]1(OC(=O)CC)[C@@H](C)C[C@H]2[C@@H]3CCC4=CC(=O)C=C[C@]4(C)[C@@]3(Cl)[C@@H](O)C[C@@]21C [BDP, beclomethasone 17,21 dipropionate]",FPD < 4.7 μm,[1]; [3],26.0 µg
same,GSD,[1]; [3],1.9
same,MMAD,[1]; [3],2.8 μm
same,Metered Dose,[1]; [3],55 µg
same,FPD < 4.7 μm,[1]; [4],19.2 µg
same,GSD,[1]; [4],2.0
same,MMAD,[1]; [4],2.6 μm
same,Metered Dose,[1]; [4],57 µg
same,FPD < 4.7 μm,[1]; [5],13.9 µg
same,GSD,[1]; [5],2.1
same,MMAD,[1]; [5],2.8 μm
same,Metered Dose,[1]; [5],49 µg
same,FPD < 4.7 μm,[1]; [6],11.7 µg
same,GSD,[1]; [6],2.2
same,MMAD,[1]; [6],2.7 μm
same,Metered Dose,[1]; [6],51 µg
same,FPD < 4.7 μm,[1]; [7],16.4 µg
same,GSD,[1]; [7],2.1
same,MMAD,[1]; [7],3.6 μm
same,Metered Dose,[1]; [7],58 µg
same,FPD < 4.7 μm,[1]; [8],13.1 µg
same,GSD,[1]; [8],2.2
same,MMAD,[1]; [8],3.5 μm
same,Metered Dose,[1]; [8],51 µg
same,FPD < 4.7 μm,[1]; [9],12.6 µg
same,GSD,[1]; [9],2.2
same,MMAD,[1]; [9],3.5 μm
same,Metered Dose,[1]; [9],49 µg
same,FPD,[1]; [10],"27, 27%"
same,MMAD,[1]; [10],"2.8, 2.8 μm"
same,FPD,[1]; [11],27% and 28%
same,MMAD,[1]; [11],3.3 μm and 3.2 μm
same,FPD,[1]; [12],"25, 25%"
same,MMAD,[1]; [12],3.4 μm and 3.7 μm
same,FPD,[1]; [13],"25, 25%"
same,MMAD,[1]; [13],"3.7, 3.7 μm"
same,FPD,[1]; [14],20% and 24%
same,MMAD,[1]; [14],4.2 μm and 3.9 μm and 3.8 μm
same,FPD3 < 4.7 μm*,"[1]; BDP 250 μg/shot, glycerol 1.3%, actuator 0.30 mm, HFA 227/HFA 134a 0:100",58 µg and 59 µg
same,FPD3 < 4.7 μm*,"[1]; BDP 250 μg/shot, glycerol 1.3%, actuator 0.30 mm, HFA 227/HFA 134a 25:75",60 µg and 62 µg
same,FPD3 < 4.7 μm*,"[1]; BDP 250 μg/shot, glycerol 1.3%, actuator 0.30 mm, HFA 227/HFA 134a 50:50","56, 56 μg"
same,FPD3 < 4.7 μm*,"[1]; BDP 250 μg/shot, glycerol 1.3%, actuator 0.30 mm, HFA 227/HFA 134a 75:25",56 µg and 57 µg
same,FPD3 < 4.7 μm*,"[1]; BDP 250 μg/shot, glycerol 1.3%, actuator 0.30 mm, HFA 227/HFA 134a 100:0",47 µg and 45 µg and 50 µg
same,MMAD,[2],1.1 μm
